Experimental data reported in patent US20150283137A1, “6-oxo-1,6-dihydro-pyridazine derivative for the use for the treatment of hepatocellular carcinoma (HCC)” (MERCK PATENT GMBH, priority 2012, published 2015).
Entries after “also recorded” stand apart in the source; their conditions may differ.

Experiments:
[1] = tested on: human MHCC97H liver tumor cells; assay: Subcutaneous MHCC97H tumor model; format: in vivo, mice; conditions: for anti-tumor activity (in words): established fast growing subcutaneous MHCC97H tumors; for T/C ratio: 5 days on and 2 days on
Description: Method: Male BalB/c nude mice (6-8 week old) where subcutaneously injected with human MHCC97H liver tumor cells and were divided into treatment groups (ten animals in one group) after the tumors were established (ca. 500 mm^3). Respective groups were administered orally with the 3-(1-{3-[5-(1-methyl-piperidin-4-ylmethoxy)-pyrimidin-2-yl]-benzyl}-6-oxo-1,6-dihydro-pyridazin-3-yl)-benzonitrile hydrochloride hydrate at different doses (10, 30 and 100 mg/kg) for 5 days on and […] or daily with sorafenib (50 mg/kg).

[2] = tested on: human primary HCC explants
Description: Method: Male BalB/c nude mice (6-8 week old) where subcutaneously transplanted with a primary HCC tumor fragment. Animals were divided into treatment groups (12 animals in one group) after the tumors were established. Respective groups were administered orally with the 3-(1-{3-[5-(1-methyl-piperidin-4-ylmethoxy)-pyrimidin-2-yl]-benzyl}-6-oxo-1,6-dihydro-pyridazin-3-yl)-benzonitrile hydrochloride hydrate at 100 mg/kg for 5 out of 7 days.

MHCC97H tumor fragments = assay: Orthotopic MHCC97H tumor model; conditions: 100 mg/kg orally
Description: Method: In male BalB/c nude mice (7-8 week old) MHCC97H tumor fragments (2-3 mm^3) where orthotopically implanted into the left lobe of the liver. After 1 week of intrahepatic implantation animals were divided into treatment groups (ten animals in one group). Respective groups were administered orally with 3-(1-{3-[5-(1-methyl-piperidin-4-ylmethoxy)-pyrimidin-2-yl]-benzyl}-6-oxo-1,6-dihydro-pyridazin-3-yl)-benzonitrile hydrochloride hydrate at 100 mg/kg/5 days on and 2 days off for 5 weeks. At the end of treatment, tumor size and tumor weight were measured, plasma AFP levels and lung metastases analyzed.

## CNC(=O)c1cc(Oc2ccc(NC(=O)Nc3ccc(Cl)c(C(F)(F)F)c3)cc2)ccn1 [sorafenib, reference compound]
[1]
  anti-tumor activity (in words): marginal anti tumor activity with no tumor regressions
[1]; sorafenib 50 mg/kg orally daily, end of treatment
  T/C value: 27%
[2]; out of 9 models, sorafenib 50 mg/kg/5 out of 7 days
  number of models with anti-tumor activity: 7

## CN1CCC(COc2cnc(-c3cccc(Cn4nc(-c5cccc(C#N)c5)ccc4=O)c3)nc2)CC1.Cl.O [3-(1-{3-[5-(1-methyl-piperidin-4-ylmethoxy)-pyrimidin-2-yl]-benzyl}-6-oxo-1,6-dihydro-pyridazin-3-yl)-benzonitrile hydrochloride hydrate]
[1]; 10 mg/kg orally
  tumor growth delay (TGD, time to reach a tumor volume of 1000 mm^3): 24 days
[1]; 10 mg/kg orally, end of treatment, tumors ca. 500 mm^3 at start
  T/C ratio: −57%
[1]; 30 mg/kg orally
  tumor growth delay (TGD, time to reach a tumor volume of 1000 mm^3): 53 days
[1]; 30 mg/kg orally, end of treatment
  T/C ratio: −93%
[1]; 100 mg/kg orally
  tumor growth delay (TGD, time to reach a tumor volume of 1000 mm^3): > 53 days
[1]; 100 mg/kg orally, end of treatment
  T/C ratio: −93%
[1]
  anti-tumor activity (in words): completely inhibited growth and induced regressions
[2]; all mice
  tolerability (body weight): well tolerated in all mice
[2]; models LIM801 and LIM612 (strong signs of c-Met signaling)
  anti-tumor activity compared with sorafenib monotherapy: better anti-tumor activity than sorafenib monotherapy
[2]; nine primary explants, besides CR and SD
  further activity in primary explants (in words): marginal activity in one additional model
[2]; nine subcutaneous established primary explants, 100 mg/kg 5 out of 7 days
  complete responses (CR): 1/9
[2]; out of 9 models, 100 mg/kg/5 out of 7 days
  number of models with significantly inhibited growth: 4
MHCC97H tumor fragments; 5 days on and 2 days off for 5 weeks
  tolerability: well tolerated
MHCC97H tumor fragments; 5 days on and 2 days off for 5 weeks, end of treatment at day 35, hydrochloride hydrate
  anti-tumor activity on primary tumor (in words): complete regression in all mice; also recorded: primary tumor regression (p<0.001)
MHCC97H tumor fragments; end of treatment
  lung metastases: reduction lung metastases (p<0.01)
MHCC97H tumor fragments; end of treatment, hydrochloride hydrate
  AFP levels in plasma: no AFP was measurable; also recorded: significantly reduced (p<0.001)
MHCC97H tumor fragments; followed throughout the study
  body weight: no body weight loss could be detected
